# Assays:
# [1] = system: myeloid lineage, human CD34+ progenitors; assay: CELISA lineage assay, myeloid lineage (CD11b); assay type: cell-based; details: growth factors present
# Procedure: (§1) The effects of CD137 on the different hematopoietic lineages were evaluated using a cell based immunoassay, which quantifies expression of lineage-specific markers (CELISA, BioWhittaker, Walkersville, Md., USA).
# (§2) Progenitors for the myeloid and erythroid lineages were normal human CD34+ cells, which had been isolated from the bone marrow of healthy volunteers by positive selection using the “Direct CD34 Progenitor Kit” (Miltenyi, Bergisch Gladbach, Germany). Progenitors for the megakaryocyte lineage were normal human CD34+ cells, which had been isolated from the peripheral blood of healthy G-CSF-treated volunteers.
# 96-well polystyrene plates were precoated with four dilutions of CD137-Fc or Fc control protein at 4° C. overnight or with the dilution buffer PBS. […]
# In this example, the influence of growth factor concentrations and potential additive or synergistic effects of these growth factors with CD137 were analysed in more detail. […]
# Differentiation was assessed per CELISA (BioWhittaker), measuring the expression of the myeloid-specific protein CD11b. Proliferation was determined using the ViaLight system (BioWhittaker), which measures the amount of ATP in the culture. […]
# [2] = system: erythroid lineage, human CD34+ progenitors; assay: CELISA lineage assay, erythroid lineage (glycophorin A); assay type: cell-based; details: growth factors present
# Procedure: as §1, §2
# (§3) 96-well polystyrene plates were precoated with four dilutions of CD137-Fc or Fc control protein at 4° C. overnight or with the dilution buffer PBS. The following additional controls were included in the experiment: no addition; Camptothecin, a cytotoxic compound, at 0.005 μM (condition 1) and at 0.5 μM (condition 2); stem Cell Factor (SCF) at a concentration of 125 ng/ml. […]
# [3] = system: megakaryocyte lineage, human CD34+ progenitors; assay: CELISA lineage assay, megakaryocyte lineage (CD41a); assay type: cell-based; details: growth factors present
# Procedure: as §1, §2, §3
# [4] = system: bone marrow cell population; assay: In vivo reconstitution of the hematopoietic system, protein A damage, bone marrow composition; parameters: species or system NMRI mice; details: day 21, average of three mice
# Text: CD137 needs to be immobilized onto a carrier or crosslinked to be functional according to the invention. Protein A was chosen as a carrier for in vivo studies, as it has been effective in crosslinking CD137-Fc in the experiment described in Example 3. CD137-Fc or Fc control protein were immobilized on protein A and injected into NMRI mice. Besides immobilizing CD137-Fe or Fc, protein A has the additional effect of being toxic for cells of the hematopoietic system. This latter activity of protein A exerts a damaging effect on the hematopoietic system of mice as does chemotherapy.
# Three mice per group were used. Each mouse received 100 μg of immobilized CD137-Fc or an equimolar amount of immobilized Fc or protein A alone. Mice were killed after 3 weeks and the bone marrow was isolated from the femurs and analysed (Table 2).
# Bone marrow cells = assay: In vivo reconstitution after Alkeran, bone marrow composition; parameters: species or system NMRI mice; details: Alkeran experiment, day 21, average of three mice
# Procedure: (§4) In the next experiment NMRI mice were treated with Alkeran, a cytotoxic drug regularly used for human cancer therapy. Alkeran was given i.p. on days 1, 3 and 5. Mice received 100 μg of CD137-Fc immobilized on protein A or equivalent amounts of immobilized Fc control protein. Three mice were used per group. The relative composition of the bone marrow cells (Table 3) and the absolute number of cells in the peripheral blood (Table 4) were determined after 21 days.
# [5] = system: cells in the peripheral blood; assay: In vivo reconstitution after Alkeran, absolute cell numbers in peripheral blood; parameters: species or system NMRI mice; details: after 21 days, average of three mice
# Procedure: as §4
molecule,measurement,setting,value
CC[C@@]1(O)C(=O)OCc2c1cc1n(c2=O)Cc2cc3ccccc3nc2-1 [Camptothecin],"growth inhibition, myeloid lineage",[1]; 0.005 uM,minimal growth inhibition
same,"growth inhibition, myeloid lineage",[1]; 0.05 uM,inhibited growth to a greater extent
same,"growth inhibition, erythroid lineage",[2]; 0.005 uM,minimal growth inhibition
same,"growth inhibition, erythroid lineage",[2]; 0.05 uM,inhibited growth to a greater extent
same,"growth inhibition, megakaryocyte lineage",[3]; 0.005 uM,minimal growth inhibition
same,"growth inhibition, megakaryocyte lineage",[3]; 0.05 uM,inhibited growth to a greater extent
Protein A: carrier for crosslinking CD137-Fc; toxic for cells of the hematopoietic system,R1 (91% erythroid),[4],69.18 Percentage of total cells
same,"R3 (49% undifferentiated blasts, 25% lymphoblasts, 18% basophil erythroblasts)",[4],1.81 Percentage of total cells
same,"R4 (50% undifferentiated blasts, 30% myeloid mainly und. precursors, 20% erythroid)",[4],1.97 Percentage of total cells
same,R5 (91% granulocytes),[4],1.12 Percentage of total cells
same,"R6 (74% monocytes, 20% myeloid precursors)",[4],0.63 Percentage of total cells
same,R5 (91% granulocytes),[4]; listed as protein A,reduced drastically
same,"R6 (74% monocytes, 20% myeloid precursors)",[4]; listed as protein A,reduced drastically
N[C@@H](Cc1ccc(N(CCCl)CCCl)cc1)C(=O)O [Alkeran],R1,Bone marrow cells,60.21 Percentage of total cells
same,R3,Bone marrow cells,0.66 Percentage of total cells
same,R4,Bone marrow cells,2.28 Percentage of total cells
same,Total number of leukocytes in the peripheral blood,[5],830 per μl
same,Total number of thrombocytes in the peripheral blood,[5],581.000 per μl

# — US20050232896A1, “Cd137 as a proliferation factor for hematopoietic stem cells” (priority 2001, published 2005)
